Experimental data published in patent US20210163489A1, “PYRAZOLOPYRIMIDINE DERIVATIVES AND THE COMPOSITIONS AND METHODS OF TREATMENT REGARDING THE SAME” (NysnoBio Ireland DAC, priority 2016, published 2021).

Molecular target: T1, Parkin (Homo sapiens, UniProt O60260)
T1 construct: Enzyme 3: Parkin-His tagged 203 μM (10.5 mg/ml)
Test: Parkin pUB auto-ubiquitinylation assay (TR-FRET)
Format: biochemical
Details: for EC50: activation of pUb activated Parkin, read-out: Auto-ubiq EC50 (μM) [Example 3]
Description: A Parkin pUB Auto-ubiquitinylation Assay is used to evaluate a compound's potency to activate Parkin's ability to Auto-ubiquitinylate itself.
The principle of this assay is that the E3 Ligase Parkin catalyzes the transfer of Ubiquitin to target proteins, but also has the ability to auto-ubiquitinylate itself. The phospho-Ubiquition (pUb) added to the assay alters the Parkin to a state where small molecule activators can enable the Parkin to auto-ubiquitinylate though the E1-E2 cascade reaction. The use of a Eu cryptate Ubiquition and anti 6His-d2 that binds to the His tagged Parkin will give a signal when the Eu cryptate Ubiquition is auto-ubiquitinylate onto the Parkin which can be monitored by TR-FRET.
Similar to the Activity-based probe assay in Example 2, screening for activating compounds can be distinguished from the controls as follows:
100% activation signal=pUb activated Parkin+40 nM control activator in DMSO. 0% activation signal=pUb activated Parkin+DMSO only. Parkin activators can be identified by an increase of the 0% activation signal TR-FRET signal.
• Assay Plate: White 384 well plate (Corning 3572) • Enzyme 1: E1 (Ubiquitin-activating enzyme/UBE1 Boston Biochem E-305) • Enzyme 2: E2 (UBcH7/Ube2L3 Boston Biochem E2-640) • Enzyme 3: Parkin-His tagged 203 μM (10.5 mg/ml) • pUb: Phospho-Ubiquitin (S65) (Boston Biochem U-102) • Eu Cryptate Reagent: Ubiquitin Eu (CisBio 61UBIKLA) • DMSO: DMSO (Sigma-34869-2.5L) • Reaction Buffer: 50 mM HEPES, 50 mM NaCl, 1 mM MgCl2, 0.005% Tween 20, 0.1% • PF-127 (Fisher Scientific 50-310-494), pH 8.5 • Detection Buffer: 50 mM HEPES, 50 mM NaCl, 800 mM KF, 5 mM EDTA, 0.005% • Tween 20, 0.1% PF-127, pH 8.5 • Detection Reagent Z: 13.4 nM Anti-6His-d2 in detection buffer • d2 Reagent: Anti-6His-d2 (CisBio 61HISDLA)
Enzyme Reaction (15 min Pre-Incubation with Parkin, pUb and Activator Only) • Parkin: 196 nM • pUb: 196 nM • DMSO: 1% DMSO • E1: 5 nM • E2: 50 nM • Ubiquitin Eu: 8.8 nM • Reaction time: 120 minutes • Temperature: 22° C. • Total volume: 10 μl reaction
Take 10 μl of Enzyme Reaction above and add 10 μl detection Reagent Z under the following conditions:
Reaction time: 60 minutes
1) Load assay plate wells with 4.9 μl 400.0 nM Parkin, 400 nM pUb in reaction buffer by use of Eppendorf 12-channel pipette. 2) Deliver 0.1 μl 100× activator candidates in DMSO by use of Echo 555 compound dispenser. Highest 100× concentration=100 μm and then twofold dilutions. Add each compound and control in duplicate wells. 3) Spin 1000 rpm, 2 minutes, at room temp. 4) Incubate plate for 15 minutes at room temp. 5) Add 5 μl 10 nM E1, 100 nM E2, 17.6 nM Ubiquitin Eu and 2 mM ATP in Reaction Buffer by use of Eppendorf 12-channel pipette. 6) Spin 1000 rpm, 2 minutes, at room temp. 7) Incubate plate for 120 minutes at room temp. 8) Add 10 μl 13.4 nM anti his d2 in detection buffer by use of Eppendorf 12-channel pipette. 9) Spin 1000 rpm, 2 minutes, at room temp. 10) Incubate plate for 120 minutes at room temp. 11) Read plates on Perkin Elmer Envision instrument with the following parameters:
LANCE dual laser protocol loaded into the Envision® software
Top Mirror: LANCE/DELFIA Duel/Bias (Bar code 446) Emission Filter: APC 665 EM (Bar code 205) 2nd Emission Filter: Europium 615 EM (Bar code 203) Read […] (channel 1) and 615 nm (channel 2) wavelengths on Envision®
Data Analysis: The Data can be read in CSV files. There are two tables in those CSV files, which are the values of 655 nm (channel 1) and 615 nm (channel 2) wavelengths respectively. The data is converted to an HTRF Ratio=(Channel 1/Channel 2)*10,000
The average of all the 0 uM controls (DMSO only)=BKGD (Background—0% activation). Subtract BKGD from each HTRF Ratio value=HTRF-BKGD. The average of all the 100 uM control activator in DMSO controls=Max (100% activation). The following equation is then used to calculate % Activation for each well/candidate as follows: % Activation=(HTRF−BKGD/Max)*100.
XLFIT5 model 205 was applied for the data analysis. […]

T1 sequence (O60260 whole entry, other chains not shown): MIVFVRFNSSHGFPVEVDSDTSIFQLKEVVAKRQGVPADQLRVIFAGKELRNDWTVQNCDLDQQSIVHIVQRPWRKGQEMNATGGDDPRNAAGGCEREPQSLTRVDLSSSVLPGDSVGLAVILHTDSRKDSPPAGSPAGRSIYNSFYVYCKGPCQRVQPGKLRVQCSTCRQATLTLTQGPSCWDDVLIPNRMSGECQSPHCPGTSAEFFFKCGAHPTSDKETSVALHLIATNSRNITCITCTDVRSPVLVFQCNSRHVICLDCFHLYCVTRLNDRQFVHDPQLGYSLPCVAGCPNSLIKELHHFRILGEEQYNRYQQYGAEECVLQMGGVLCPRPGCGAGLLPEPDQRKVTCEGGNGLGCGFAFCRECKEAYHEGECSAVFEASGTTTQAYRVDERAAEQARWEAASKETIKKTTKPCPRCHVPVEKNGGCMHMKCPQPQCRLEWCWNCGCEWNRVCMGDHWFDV

| SMILES | EC50 [µM] | Parkin activity in an auto-ubiquitination assay |
| --- | --- | --- |
| Cc1nc2c(-c3ccccc3)cnn2c(O)c1Cc1ccccc1 [Compound U, 6-benzyl-5-methyl-3-phenyl-pyrazolo[1,5-a]pyrimidin-7-ol] | 14.7 |  |
| Cc1nc2c(-c3ccccc3)c(C)nn2c(S)c1Cc1ccccc1 [Compound A, 6-benzyl-2,5-dimethyl-3-phenylpyrazolo[1,5-a]pyrimidine-7-thiol] |  | increases |
| Sc1c(Cc2ccccc2)cnc2c(-c3ccccc3)cnn12 [Compound Z, 6-benzyl-3-phenyl-pyrazolo[1,5-a]pyrimidin-7-thiol] | > 40 |  |
| Cc1cc(S)n2ncc(-c3cccc(N(C)C)c3)c2n1 [UU] | > 40 |  |
| Cc1nc2c(-c3ccccc3)c(C)nn2c(O)c1Cc1ccncc1 [Compound X, 2,5-dimethyl-3-phenyl-6-(4-pyridylmethyl)pyrazolo[1,5-a]pyrimidin-7-ol] | > 40 |  |
| COc1ccccc1-c1c(C)nn2c(S)cc(C)nc12 [Compound D] | 11.7 |  |
| Cc1cc2nc(C)c(Cc3ccccc3)c(S)n2n1 [S] | > 40 |  |
| Cc1nc2c(C(F)(F)F)c(C)nn2c(S)c1Cc1ccccc1 [LL] | 16.5 |  |
| Cc1ccc(-c2cnn3c(S)cc(C)nc23)cc1 [TT] | > 40 |  |
| Cc1nc2c(C#N)c(C)nn2c(S)c1Cc1ccccc1 [OO] | > 40 |  |
| CCc1nn2c(S)cc(C)nc2c1-c1ccc(F)cc1 [Compound I] | 6.4 |  |
| Cc1nn2c(S)c3c(nc2c1-c1ccccc1)CCOC3 [WW] | > 40 |  |
| Cc1cc(C)c2c(n1)nn1c(S)c(Cc3ccccc3)c(C)nc21 [RR] | > 40 |  |
| Cc1nn2c(S)c3c(nc2c1-c1ccccc1)COC3 [XX] | > 40 |  |
| CNc1c2c(nc3c(-c4ccccc4)c(C)nn13)CCN(C)C2 [YY] | > 40 |  |
| Cc1cc2nc(C)c(Cc3ccc(Cl)cc3)c(O)n2n1 [Compound P, 6-[(4-chlorophenyl)methyl]-2,5-dimethyl-pyrazolo[1,5-a]pyrimidin-7-ol] | 20.1 |  |
| Cc1cc(S)n2nc(C)c(-c3ccccc3)c2n1 [O] | > 40 |  |
| Cc1nn2c(O)c(Cc3ccccc3)cnc2c1-c1ccccc1 [Compound V, 6-benzyl-2-methyl-3-phenyl-pyrazolo[1,5-a]pyrimidin-7-ol] | > 40 |  |
| Cc1nn2c(S)cc(C(C)C)nc2c1-c1ccccc1 [H] | > 40 |  |
| Cc1cc(C)c2c(n1)nn1c(O)c(Cc3ccccc3)c(C)nc21 [NN] | > 40 |  |
| Cc1nc2c(-c3ccncc3)c(C)nn2c(S)c1Cc1ccccc1 [MM] | > 40 |  |
| Cc1cc(S)n2ncc(-c3ccc(F)cc3)c2n1 [Compound L, 3-(4-fluorophenyl)-5-methylpyrazolo[1,5-a]pyrimidine-7-thiol] | 27.1 | increases |
| CC(C)(C)c1cc(O)n2ncc(-c3ccc(Cl)cc3)c2n1 [Compound G] | > 40 |  |

| SMILES | EC50 [µM] | Parkin activity in an auto-ubiquitination assay |
| --- | --- | --- |
| Cc1nc2c(-c3ccccc3)c(C)nn2c(S)c1Cc1ccncc1 [Compound AA, 2,5-dimethyl-3-phenyl-6-(4-pyridylmethyl)pyrazolo[1,5-a]pyrimidine-7-thiol] | > 40 |  |
| Cc1cc(O)n2nc(C)c(-c3ccc(Cl)cc3)c2n1 [M] | > 40 |  |
| Cc1cc(S)n2nc(C)c(-c3ccc(Cl)cc3)c2n1 [N] | > 40 |  |
| COc1ccc(-c2cnn3c(S)cc(C)nc23)cc1 [SS] | > 40 |  |
| Cc1nc2c(-c3ccccc3)c(C)nn2c(O)c1Cc1ccccn1 [Compound Y, 2,5-dimethyl-3-phenyl-6-(2-pyridylmethyl)pyrazolo[1,5-a]pyrimidin-7-ol] | > 40 |  |
| Cc1nc2c(C(=O)N(C)C)c(C)nn2c(O)c1Cc1ccccc1 [EE] | > 40 |  |
| Cc1nc2c(-c3ccccc3)c(C)nn2c(O)c1Cc1ccccc1 [T] | > 40 |  |
| CC(C)(C)c1cc(O)n2ncc(-c3ccccc3)c2n1 [J] | 13.4 |  |
| Cc1cc(S)n2ncc(-c3cnn(C)c3)c2n1 [VV] | > 40 |  |
| Cc1cc(C)c2c(n1)nn1c(S)cc(C)nc21 [Compound E] | 10.1 |  |
| Cc1cc(O)n2ncc(-c3ccc(F)cc3)c2n1 [PP] | > 40 |  |
| Cc1nc2c(-c3ccccn3)c(C)nn2c(S)c1Cc1ccccc1 [HH] | > 40 |  |
| Cc1nn2c(S)c(Cc3ccccc3)cnc2c1-c1ccccc1 [Compound DD, 6-benzyl-2-methyl-3-phenyl-pyrazolo[1,5-a]pyrimidin-7-thiol] | > 40 |  |
| Cc1cc2nc(C)c(Cc3ccc(Cl)cc3)c(S)n2n1 [Compound R, 6-[(4-chlorophenyl)methyl]-2,5-dimethyl-pyrazolo[1,5-a]pyrimidine-7-thiol] | > 40 |  |
| CCCc1cc(S)n2nc(C)c(-c3ccccc3)c2n1 [Compound B] | > 40 |  |
| Cc1nc2c(-c3ccccc3)cnn2c(S)c1Cc1ccccc1 [Compound CC, 6-benzyl-5-methyl-3-phenyl-pyrazolo[1,5-a]pyrimidin-7-thiol] | > 40 |  |
| Cc1nn2c(O)cc(C(C)(C)C)nc2c1-c1ccc(Cl)cc1 [F] | > 40 |  |
| Cc1nc2c(-c3ccccn3)c(C)nn2c(O)c1Cc1ccccc1 [FF] | > 40 |  |
| Cc1nc2c(C(=O)N(C)C)c(C)nn2c(S)c1Cc1ccccc1 [II] | > 40 |  |
| Cc1nn2c(S)c3c(nc2c1-c1ccccc1)CCCC3 [Compound K] | > 40 |  |
| Cc1nc2c(C(F)(F)F)c(C)nn2c(O)c1Cc1ccccc1 [JJ] | > 40 |  |
| Cc1cc(S)n2ncc(-c3ccccc3)c2n1 [Compound C] | > 40 |  |

Second part, the molecule after the results:

| EC50 [µM] | Parkin activity in an auto-ubiquitination assay | SMILES |
| --- | --- | --- |
| 21 |  | Cc1nc2c(-c3cccnc3)c(C)nn2c(S)c1Cc1ccccc1 [Compound D3] |
| > 40 |  | Cc1cc(S)n2ncc(-c3cc[nH]c(=O)c3)c2n1 [Compound A3] |
| > 40 |  | Cc1nc2c(C3CCN(C)CC3)c(C)nn2c(S)c1Cc1ccccc1 [Compound N3] |
| > 40 |  | Cc1nc2c(C3CCN(C)CC3)c(C)nn2c(O)c1Cc1ccccc1 [Compound O3] |
| > 40 |  | Cc1nc2c(-c3cccnc3)c(C)nn2c(O)c1Cc1ccccc1 [Compound L3] |
| > 40 |  | Cc1ccc(-c2cnn3c(O)c4c(nc23)CN(C)CC4)cc1 [Compound P3] |
| > 40 |  | Cc1nn2c(S)c(CC(C)C)cnc2c1-c1ccccc1 [Compound G3] |
| > 40 |  | COc1ccc(Cn2ccc(-c3cnn4c(S)cc(C)nc34)cc2=O)cc1 [Compound B3] |
| > 40 |  | Cc1nn2c(S)c3c(nc2c1-c1ccccc1)CN(C)CC3 [Compound C3] |
| > 40 |  | COc1ccc(-c2cnn3c(O)cc(C)nc23)cc1 [Compound J3] |
| 32 |  | Cc1cc(S)c2ncc(-c3ccc(F)cc3)n2n1 [Compound F3] |
| > 40 |  | Cc1ccc(-c2cnn3c(O)cc(C)nc23)cc1 [Compound H3] |
| > 40 |  | Cc1cc(O)n2ncc(-c3cccc(N(C)C)c3)c2n1 [Compound M3] |
| > 40 |  | Cc1nn2c(O)c3c(nc2c1-c1ccccc1)CCN(C)C3 [Compound K3] |
| > 40 |  | Cc1ccc(-c2cnn3c(S)c4c(nc23)CN(C)CC4)cc1 [Compound S3] |
